Data published in publication PMC8472993, “A Novel Glutathione S-Transferase Gtt2 Class (VpGSTT2) Is Found in the Genome of the AHPND/EMS Vibrio parahaemolyticus Shrimp Pathogen” (Toxins, 2021).

What was measured:
[1] = molecular target: T1, VpGSTT2 (Vibrio parahaemolyticus, UniProt Q87HB4); experiment: spectrophotometric CDNB conjugation at […] nm, initial rates; format: biochemical; conditions: read-out: CDNB / Km; CDNB 0.3-2 mM, GSH 0.5 mM fixed; phosphate buffer (0.1 M NaH2PO4 pH 6.5), room temperature
T1 construct: gene VPA1051; Full coding region, synthetic E. coli-optimised gene in pET11a; C-terminal PreScission site and 6xHis tag (tag removal described); E. coli BL21(DE3) Gold
T1 sequence (Q87HB4 1-204): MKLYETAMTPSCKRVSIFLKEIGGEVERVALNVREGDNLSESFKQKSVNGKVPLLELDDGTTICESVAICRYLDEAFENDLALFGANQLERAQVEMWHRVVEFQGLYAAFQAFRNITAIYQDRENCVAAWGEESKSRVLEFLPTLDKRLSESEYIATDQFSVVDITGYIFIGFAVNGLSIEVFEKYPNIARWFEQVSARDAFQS

[2] = molecular target: Glutathione S-transferase class Gtt2 from Vibrio parahaemolyticus (VpGSTT2) (Vibrio parahaemolyticus (strain FIM-S1708+)); experiment: SEC; Superdex 75 HR 10/300 GL on an Äkta Pure, calibrated with molecular-weight standards (conalbumin, ovalbumin, carbonic anhydrase, ribonuclease A, aprotinin); VpGSTT2 eluted at 10.8 mL, corresponding to 48.2 kDa; protein dialysed against Tris-HCl, 150 mM NaCl, pH 7.2

## O=[N+]([O-])c1ccc(Cl)c([N+](=O)[O-])c1 [CDNB, 1-chloro-2,4-dinitrobenzene]
[1]
  Km: 1000 µM

## Glutathione S-transferase class Gtt2 from Vibrio parahaemolyticus (VpGSTT2) (enzyme)
[2]
  stoichiometry N: 2
